Biological target: T1, KDM4C (Homo sapiens, UniProt Q9H3R0)
T1 construct: N-terminal GST-tagged KDM4C^2-372 was purchased from BPS Biosciences; GST (N); purchased BPS Biosciences
T1 sequence (Q9H3R0 2-372): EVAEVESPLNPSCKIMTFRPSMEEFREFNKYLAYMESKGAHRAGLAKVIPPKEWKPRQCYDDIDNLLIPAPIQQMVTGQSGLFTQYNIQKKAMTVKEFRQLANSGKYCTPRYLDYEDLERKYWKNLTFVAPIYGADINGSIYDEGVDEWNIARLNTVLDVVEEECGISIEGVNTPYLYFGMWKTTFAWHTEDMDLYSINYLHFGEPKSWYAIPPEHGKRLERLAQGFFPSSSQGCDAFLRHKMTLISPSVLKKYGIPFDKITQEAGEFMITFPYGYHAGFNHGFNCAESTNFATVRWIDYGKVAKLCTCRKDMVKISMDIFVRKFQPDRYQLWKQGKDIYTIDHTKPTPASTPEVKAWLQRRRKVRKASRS
Assay: KDM4C Assay (SAMDI mass spectrometry demethylase assay)
Assay type: biochemical
Settings: N-terminal GST-tagged KDM4C 2-372; class symbols; read-out: 4C IC50
In short: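 GST-tagged KDM4C 2-372 (5 nM) preincubated 30 min with compound, then H3K9me3 biotinylated peptide (500 nM) and 2-oxoglutarate (15 μM) added in HEPES pH 8.0 with ascorbate, Fe(II), TCEP; 150 min at 25 °C, formic-acid quench. Conversion by SAMDI mass spectrometry from substrate/product peak AUC; IC50 from dose-response.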

IC50 [nM] | Compound
100 to 1000 | Cc1c(Nc2cnccc2C(=O)O)cnn1C1CCN(C2CCC2)CC1 [Compound 96]
100 to 1000 | Cc1c(Nc2cnccc2C(=O)O)cnn1C1CCN(CC(F)(F)F)CC1 [Compound 100, 3-(5-methyl-1-(1-(2,2,2-tri-fluoro-ethyl)piperidin-4-yl)-1H-pyrazol-4-ylamino)isonicotinic acid]
1000 to 10000 | Cc1nn(CCN(C)C)cc1Nc1cnccc1C(=O)O [Compound 107, 3-(1-(2-(dimethylamino)ethyl)-3-methyl-1H-pyrazol-4-ylamino) isonicotinic acid]
1000 to 10000 | COc1ccc(-n2nc(C)c(Nc3cnccc3C(=O)O)c2C)cc1 [Compound 75, 3-((1-(4-methoxyphenyl)-3,5-dimethyl-1H-pyrazol-4-yl)amino)isonicotinic acid]
100 to 1000 | Cc1c(Nc2cnccc2C(=O)O)cnn1C1CCN(C(=O)c2ccccc2)CC1 [Compound 98, 3-(1-(1-benzoylpiperidin-4-yl)-5-methyl-1H-pyrazol-4-ylamino) isonicotinic acid]
100 to 1000 | Cc1nn(C2CCN(C(C)C)CC2)cc1Nc1cnccc1C(=O)O [Compound 102, 3-((1-(1-isopropylpiperidin-4-yl)-3-methyl-1H-pyrazol-4-yl)amino)isonicotinic acid]
100 to 1000 | O=C(O)c1ccncc1Nc1nn(CCC(F)(F)F)cc1-c1ccncc1 [Compound 74, 3-((4-(pyridin-4-yl)-1-(3,3,3-trifluoropropyl)-1H-pyrazol-3-yl)amino)isonicotinic acid]
1000 to 10000 | Cc1nn(C2CCN(C(=O)c3ccccc3)CC2)cc1Nc1cnccc1C(=O)O [Compound 97, 3-(1-(1-benzoylpiperidin-4-yl)-3-methyl-1H-pyrazol-4-ylamino) isonicotinic acid]
1000 to 10000 | Cc1nn(C2CCN(CC(F)(F)F)CC2)cc1Nc1cnccc1C(=O)O [Compound 99, 3-(3-methyl-1-(1-(2,2,2-trifluoroethyl)piperidin-4-yl)-1H-pyrazol-4-ylamino)isonicotinic acid]
100 to 1000 | Cc1c(Nc2cnccc2C(=O)O)cnn1C1CCCN(C)CC1 (stereo not drawn) [Compound 112, 3-((5-methyl-1-(1-methylazepan-4-yl)-1H-pyrazol-4-yl)amino)isonicotinic acid]
100 to 1000 | Cc1cc(Nc2cnccc2C(=O)O)n(C2CCOCC2)n1 [Compound 78, 3-((3-methyl-1-(tetrahydro-2H-pyran-4-yl)-1H-pyrazol-5-yl)amino) isonicotinic acid]
10000 to 100000 | COC(=O)c1ccncc1Nc1cn(C2CCN(C(C)C)CC2)nc1C [Compound 101, methyl 3-((1-(1-isopropylpiperidin-4-yl)-3-methyl-1H-pyrazol-4-yl)amino)isonicotinate]
100 to 1000 | Cc1nn(C2CCCNCC2)cc1Nc1cnccc1C(=O)O (single isomer, unassigned) [Compound 116]

Continued, molecule first:

Compound | IC50 [nM]
N[C@H]1CC[C@H](n2nc(-c3ccccc3)cc2Nc2cnccc2C(=O)O)CC1 [Compound 38, 3-((1-((trans)-4-aminocyclohexyl)-3-phenyl-1H-pyrazol-5-yl)amino)isonicotinic acid] | 10000 to 100000
Cn1ncc(-c2ccccc2)c1Nc1cnccc1C(=O)O [Compound 1] | 100 to 1000
CN(C)CCn1ncc(-c2ccccc2)c1Nc1cnccc1C(=O)O [Compound 65, 3-((1-(2-(dimethylamino)ethyl)-4-phenyl-1H-pyrazol-5-yl)amino)isonicotinic acid] | 1000 to 10000
O=C(O)c1ccncc1Nc1nn(-c2ccccc2)cc1-c1ccccc1 [Compound 42, 3-((1,4-diphenyl-1H-pyrazol-3-yl)amino)isonicotinic acid] | 100 to 1000
CN(C)CCCn1cc(-c2ccccc2)c(Nc2cnccc2C(=O)O)n1 [Compound 51, 3-((1-(3-(dimethylamino)propyl)-4-phenyl-1H-pyrazol-3-yl)amino) isonicotinic acid] | 100 to 1000
Cn1nc(-c2ccccc2)cc1Nc1cnccc1C(=O)O [Compound 6] | 1000 to 10000
Cn1ncc(-c2ccccc2F)c1Nc1cnccc1C(=O)O [Compound 12, 3-((4-(2-fluorophenyl)-1-methyl-1H-pyrazol-5-yl)amino) isonicotinic acid] | 1 to 100
CN(C)CCn1cc(-c2ccccc2)c(Nc2cnccc2C(=O)O)n1 [Compound 64, 3-((1-(2-(dimethylamino)ethyl)-4-phenyl-1H-pyrazol-3-yl)amino)isonicotinic acid] | 1 to 100
O=C(O)c1ccncc1Nc1cc(-c2ccccc2)nn1-c1ccncc1 [Compound 56, 3-((3-phenyl-1-(pyridin-4-yl)-1H-pyrazol-5-yl)amino) isonicotinic acid] | 100 to 1000
CC(C)n1nc(-c2ccccc2)cc1Nc1cnccc1C(=O)O [Compound 22, 3-((1-Isopropyl-3-phenyl-1H-pyrazol-5-yl)amino)isonicotinic acid] | 100 to 1000
O=C(O)c1ccncc1Nc1c(-c2ccccc2)cnn1-c1ccccc1 [Compound 43, 3-((1,4-Diphenyl-1H-pyrazol-5-yl)amino)isonicotinic acid] | 10000 to 100000
N[C@H]1CC[C@@H](n2nc(-c3ccccc3)cc2Nc2cnccc2C(=O)O)CC1 [Compound 37, 3-((1-((cis)-4-aminocyclohexyl)-3-phenyl-1H-pyrazol-5-yl)amino)isonicotinic acid] | 100 to 1000
Cc1c(-c2ccccc2)nn(CCN2CCC(F)(F)CC2)c1Nc1cnccc1C(=O)O [Compound 66, 3-((1-(2-(4,4-difluoropiperidin-1-yl)ethyl)-4-methyl-3-phenyl-1H-pyrazol-5-yl)amino)isonicotinic acid] | 10000 to 100000
Cc1cc(Nc2cnccc2C(=O)O)n(-c2ccccc2)n1 [Compound 61, 3-((3-methyl-1-phenyl-1H-pyrazol-5-yl)amino) isonicotinic acid] | 100 to 1000
Cn1ncc(-c2ccc(F)cc2)c1Nc1cnccc1C(=O)O [Compound 8, 3-((4-(4-fluorophenyl)-1-methyl-1H-pyrazol-5-yl)amino) isonicotinic acid] | 1000 to 10000
O=C(O)c1ccncc1Nc1cnn(CCN2CCC(F)(F)CC2)c1-c1ccccc1 [Compound 18, 3-((1-(2-(4,4-difluoropiperidin-1-yl)ethyl)-5-phenyl-1H-pyrazol-4-yl)amino)isonicotinic acid] | 100 to 1000
Cc1c(-c2ccccc2)nn(C)c1Nc1cnccc1C(=O)O [Compound 53, 3-((1,4-dimethyl-3-phenyl-1H-pyrazol-5-yl)amino)isonicotinic acid] | 100 to 1000
O=C(O)c1ccncc1Nc1cc(-c2ccccc2)nn1[C@H]1CC[C@H](O)CC1 [Compound 39, 3-((1-((trans)-4-hydroxycyclohexyl)-3-phenyl-1H-pyrazol-5-yl)amino)isonicotinic acid] | 100 to 1000
Cn1nc(-c2cccc(Cl)c2)cc1Nc1cnccc1C(=O)O [Compound 25, 3-((3-(3-chlorophenyl)-1-methyl-1H-pyrazol-5-yl)amino) isonicotinic acid] | 1000 to 10000
Cn1cc(Nc2cnccc2C(=O)O)c(-c2ccccc2)n1 [Compound 13, 3-((1-methyl-3-phenyl-1H-pyrazol-4-yl)amino) isonicotinic acid] | 100 to 1000
Cn1cc(-c2cccc(F)c2)c(Nc2cnccc2C(=O)O)n1 [Compound 9, 3-((4-(3-Fluorophenyl)-1-methyl-1H-pyrazol-3-yl)amino) isonicotinic acid] | 100 to 1000
O=C(O)c1ccncc1Nc1nn(CCC(F)(F)F)cc1-c1ccccc1 [Compound 73, 3-((4-phenyl-1-(3,3,3-trifluoropropyl)-1H-pyrazol-3-yl)amino) isonicotinic acid] | 100 to 1000
O=C(O)c1ccncc1Nc1nn(CCN2CCC(F)(F)CC2)cc1-c1ccccc1 [Compound 14, 3-((1-(2-(4,4-Difluoropiperidin-1-yl)ethyl)-4-phenyl-1H-pyrazol-3-yl)amino)isonicotinic acid] | 100 to 1000
O=C(O)c1ccncc1Nc1nn(CCN2CCC(F)(F)CC2)cc1C1CCCCC1 [Compound 57, 3-((4-cyclohexyl-1-(2-(4,4-difluoropiperidin-1-yl)ethyl)-1H-pyrazol-3-yl)amino)isonicotinic acid] | 100 to 1000
Cn1cc(-c2ccc(F)cc2)c(Nc2cnccc2C(=O)O)n1 [Compound 7, 3-((4-(4-Fluorophenyl)-1-methyl-1H-pyrazol-3-yl)amino) isonicotinic acid] | 100 to 1000
Cc1n[nH]c(-c2ccccc2)c1Nc1cnccc1C(=O)O [Compound 55, 3-((5-methyl-3-phenyl-1H-pyrazol-4-yl)amino)isonicotinic acid] | 1000 to 10000
O=C(O)c1ccncc1Nc1nn(C2CCOCC2)cc1-c1ccccc1 [Compound 72, 3-((4-phenyl-1-(tetrahydro-2H-pyran-4-yl)-1H-pyrazol-3-yl)amino)isonicotinic acid] | 1000 to 10000
O=C(O)c1ccncc1Nc1c(-c2ccc(F)cc2)cnn1CCN1CCC(F)(F)CC1 [Compound 46, 3-((1-(2-(4,4-difluoropiperidin-1-yl)ethyl)-4-(4-fluorophenyl)-1H-pyrazol-5-yl)amino) isonicotinic acid] | 10000 to 100000
CNC(=O)c1cccc(-n2ncc(Nc3cnccc3C(=O)O)c2C)c1 [Compound 59, 3-((5-methyl-1-(3-(methylcarbamoyl)phenyl)-1H-pyrazol-4-yl)amino) isonicotinic acid] | 1 to 100

Source: patent US20170291890A1 (Epizyme, Inc., priority 2014, published 2017)
